# In US10308658B2, “Salt of EGFR inhibitor, crystalline form and uses thereof” (SUNSHINE LAKE PHARMA CO., LTD., priority 2015, dated 2019):
# Assays:
# [1] = Pharmacokinetic assay in beagle dogs; assay type: in vivo; conditions: for AUC(0-inf) / AUC(0-t) / Cmax / Tmax / half-life: dog, in vivo, oral, capsule, 5 mg/kg as compound of Formula (II)
# Method: The pharmacokinetic properties of the compound of Formula (II) and crystalline form I of the invention were assessed in beagle dogs: each group having 3 beagle dogs was administered by oral in a capsule form. The dosage amount of crystalline form I was converted and determined according to the compound of Formula (II) at a dosage of 5 mg/kg.
# [2] = Hygroscopic test (Chinese Pharmacopoeia 2010, appendix XIX J); assay type: physicochemical; conditions: 25° C.±1° C., relative humidity 80%±2%, 24 h; for Hygroscopic weight gain: dimethanesulfonate monohydrate
# Excerpt: 1. Instruments: one hundred thousandth electronic balance, type: XP205DR, manufacturer: Mettler.
# 2. Test method deriving from Chinese Pharmacopoeia 2010, appendix XIX J: Guideline on pharmaceutical hygroscopic test. Specific method is described as follows:
# 1) Placing a dried glass-stoppered, weighing bottle (outer diameter: 50 mm, height: 15 mm) in a thermostatic drier with saturated aqueous ammonium chloride or ammonium sulfate solution in the bottom at the previous day of the test maintaining the temperature at 25° C.±1° C., and the glass-stoppered, weighing bottle was weighed precisely.
# 2) Taking and weighing an appropriate amount of the sample (m1), and placing the sample into the weighing bottle with thickness of about 1 mm.
# 3) Opening the weighing bottle, and placing the glass stopper with the opened weighing bottle in a constant temperature and humidity condition for 24 h.
# 4) Sealing the weighing bottle with glass stopper, and the weighing bottle sealed with glass stopper was weighed precisely (m2). The percentage (%) of weight gain was calculated. Percentage (%) of weight gain=(m2−m1−m0)/m1×100%
# 5) The hygroscopic features and definition of hygroscopic weight gain are summarized in table 3 (deriving from Chinese Pharmacopoeia 2010, appendix XIX J: Guideline on pharmaceutical hygroscopic test, test conditions: 25° C.±1° C., Relative Humidity 80%±2%).
# [3] = Stability test (high temperature, high humidity, illumination); assay type: physicochemical
# Method: (§1) The purity of the compound used in the stability test or accelerated test is measured by Aglient 1200 high performance liquid chromatography with VWD detector. The chromatographic column model is ZORBAX Extend-C18 (4.6×150 mm, […]), the detection wavelength is 250 nm, the flow rate is 1.0 mL/min, the column temperature is 40° C., and the mobile phase is 10 mM KH2PO4 (pH=7.5)-acetonitrile (v/v=55/45).
# According to “Guidelines for the stability test of raw materials and preparations” (Chinese Pharmacopoeia, 2015, 4th edition, general rules 9001), the stability of crystalline form I was tested as follows:
# Appropriate amount of sample was taken into the flat weighing bottle to form a thin layer of no more than 5 mm thick. […] The content of impurities was tested by HPLC.
# [4] = Accelerated test (40±2° C./75%±5% RH, six months); assay type: physicochemical; conditions: for Impurities (total impurities, %) / Moisture (%): 40±2° C./75%±5% RH
# Method: as §1
# According to “Guidelines for the stability test of raw materials and preparations” (Chinese Pharmacopoeia, 2015, 4th edition, general rules 9001), the accelerated test of crystalline form I was practiced as follows:
# Medicinal low density polyethylene bag (the size was 140*120*0.104 mm^3, the manufacture was Tianjin Litian Medicine Packing Material Co., Ltd, and the batch number was 121238.) was used as inner package material, and the bag was sealed by nylon cable ties; and paper tube was used as a packaging material. The packaged samples were placed in a constant temperature and humidity test chamber (40±2° C./75%±5% RH) for six months for accelerated test. Sampling at the end of 1, 2, 3 or 6 months for testing the moisture content of the sample by using karl fischer titration, the content of impurities was measured by HPLC.
# EGFR = EGFR (Homo sapiens, UniProt P00533); conditions: as disclosed in CN 103102344 A; cited from earlier work
# [5] = oral capsule, individual data analysis
# Chain of EGFR (P00533 25-1210, species assumed): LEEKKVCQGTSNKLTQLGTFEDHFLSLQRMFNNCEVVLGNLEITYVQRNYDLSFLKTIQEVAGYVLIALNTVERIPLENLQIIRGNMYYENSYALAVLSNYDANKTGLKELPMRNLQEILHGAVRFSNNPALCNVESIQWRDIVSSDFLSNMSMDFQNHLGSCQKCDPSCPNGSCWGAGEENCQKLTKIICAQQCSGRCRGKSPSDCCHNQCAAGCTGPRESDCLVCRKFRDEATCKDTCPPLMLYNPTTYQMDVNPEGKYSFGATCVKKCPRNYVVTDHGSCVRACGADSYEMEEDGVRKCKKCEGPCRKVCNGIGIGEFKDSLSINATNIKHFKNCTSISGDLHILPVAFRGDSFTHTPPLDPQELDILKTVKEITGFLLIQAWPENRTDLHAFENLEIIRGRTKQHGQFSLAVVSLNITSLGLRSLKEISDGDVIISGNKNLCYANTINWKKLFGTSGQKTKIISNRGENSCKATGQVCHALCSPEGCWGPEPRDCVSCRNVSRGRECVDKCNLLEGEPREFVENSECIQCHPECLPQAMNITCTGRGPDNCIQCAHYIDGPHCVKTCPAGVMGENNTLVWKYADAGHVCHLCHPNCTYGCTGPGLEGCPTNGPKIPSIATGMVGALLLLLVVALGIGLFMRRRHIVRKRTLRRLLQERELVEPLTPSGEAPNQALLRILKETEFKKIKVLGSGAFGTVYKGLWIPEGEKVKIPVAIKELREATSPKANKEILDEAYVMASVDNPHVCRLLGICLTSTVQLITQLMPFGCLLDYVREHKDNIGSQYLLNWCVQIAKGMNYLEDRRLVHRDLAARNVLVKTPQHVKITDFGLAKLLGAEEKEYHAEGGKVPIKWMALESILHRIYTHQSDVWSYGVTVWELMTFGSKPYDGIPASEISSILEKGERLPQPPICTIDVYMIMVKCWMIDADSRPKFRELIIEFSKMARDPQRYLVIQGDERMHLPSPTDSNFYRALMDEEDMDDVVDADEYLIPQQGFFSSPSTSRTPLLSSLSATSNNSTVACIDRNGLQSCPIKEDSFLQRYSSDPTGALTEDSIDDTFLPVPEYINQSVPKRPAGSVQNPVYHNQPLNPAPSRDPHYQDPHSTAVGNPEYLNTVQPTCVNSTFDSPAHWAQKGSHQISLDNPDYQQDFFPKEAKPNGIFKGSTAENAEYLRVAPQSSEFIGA
structure (smiles),measurement,setting,value
"COc1cc2ncnc(Nc3ccc(F)c(Cl)c3)c2cc1OCCCN1C[C@@H]2OCCO[C@@H]2C1.CS(=O)(=O)O.CS(=O)(=O)O.O [Crystalline form I, 4-[(3-chloro-4-fluorophenyl)amino]-7-methoxy-6-[3-[(1R,6S)-2,5-dioxa-8-azabicyclo[4.3.0]nonan-8-yl]propoxy]quinazoline dimethanesulfonate monohydrate]",AUC(0-inf),[1],1470 ng·h/mL
same,AUC(0-t),[1],1450 ng·h/mL
same,Cmax,[1],231 ng/mL
same,Tmax,[1],1.33 h
same,half-life,[1],3.65 h
same,Tmax time compared with compound of Formula (II),[1]; oral capsule,earlier than compound of Formula (II)
same,absorption compared with compound of Formula (II),[1]; [5],faster absorption
same,exposure level compared with compound of Formula (II),[1]; [5],higher exposure level
same,Hygroscopic feature,[2],almost no hygroscopicity
same,Hygroscopic weight gain,[2],0.074%
same,Hygroscopic weight gain,[2]; listed as crystalline form I,0.074%
same,"Impurities (total impurities, %)",[3]; 0 day,0.13%
same,"Impurities (total impurities, %)","[3]; High humidity 25° C. ± 2° C./92.5% RH, 5 days",0.14%
same,"Impurities (total impurities, %)","[3]; High humidity 25° C. ± 2° C./92.5% RH, 10 days",0.16%
same,"Impurities (total impurities, %)","[3]; High temperature 60° C. ± 2° C., 5 days",0.12%
same,"Impurities (total impurities, %)","[3]; High temperature 60° C. ± 2° C., 10 days",0.14%
same,"Impurities (total impurities, %)","[3]; Illumination 4500 ± 500 lx, 5 days",0.13%
same,"Impurities (total impurities, %)","[3]; Illumination 4500 ± 500 lx, 10 days",0.13%
same,"Impurities (total impurities, %)","[3]; Illumination 4500 ± 500 lx, 15 days",0.14%
same,change of impurity,"[3]; high temperature 10 days, high humidity 10 days, illumination 15 days",no obvious change
same,quality (stability),"[3]; high temperature, high humidity or illumination condition",stable
same,"Impurities (total impurities, %)",[4]; 0 day,0.18%
same,Moisture (%),[4]; 0 day,2.79%
same,"Impurities (total impurities, %)",[4]; One month,0.18%
same,Moisture (%),[4]; One month,2.92%
same,"Impurities (total impurities, %)",[4]; Six months,0.17%
same,Moisture (%),[4]; Six months,2.86%
same,"Impurities (total impurities, %)",[4]; Three months,0.18%
same,Moisture (%),[4]; Three months,3.09%
same,"Impurities (total impurities, %)",[4]; Two months,0.17%
same,Moisture (%),[4]; Two months,2.87%
same,quality (stability),"[4]; accelerated test condition for six months, low density polyethylene bag as inner package",stable
"COc1cc2ncnc(Nc3ccc(F)c(Cl)c3)c2cc1OCCCN1C[C@@H]2OCCO[C@@H]2C1 [Compound of Formula (II), 4-[(3-chloro-4-fluorophenyl)amino]-7-methoxy-6-[3-[(1R,6S)-2,5-dioxa-8-azabicyclo [4.3.0]nonan-8-yl]propoxy]quinazoline]",AUC(0-inf),[1],886 ng·h/mL
same,AUC(0-t),[1],825 ng·h/mL
same,Cmax,[1],125 ng/mL
same,Tmax,[1],1.67 h
same,half-life,[1],3.62 h
same,inhibition activity against EGFR,EGFR,high inhibition activity
